Series [1] is described as follows: Solubility of compound A in aqueous buffer. Format: physicochemical. The conditions noted are these: pH 1.2, aqueous buffer, thermodynamic from solid, pH of 1.2 to 7.4, 37 °C/24 h. The source says:
The starting material of compound A is an anhydrous crystal powder with slight hygroscopicity, which is almost insoluble in water. […] For such drugs with poor water solubility, the dissolution of the drugs in gastrointestinal fluids is the rate-limiting step of their bioavailability, and poor water solubility will necessarily lead to low dissolution and thus lower bioavailability. Therefore, if the bioavailability of the drug is to be improved, the dosage form, formula composition, and process need to be specially designed to change the dispersion state of the drug and promote its dissolution in the gastrointestinal tract.

Series [2] is described as follows: Solubility of compound A in various solvents (standard solubility determination). In kind it is physicochemical. To be noted: organic solvent or mixture, 25 °C. The procedure:
The solubility (25 °C) of the active ingredient compound A in various solvents was determined using a standard solubility determination method well known in the art.

Values after ≈ are worked out from the molar mass of the structure shown.

A word on the solubility: it is how much of the substance goes into solution per volume. In series [1], `CC(C)N1Cc2cc(C(F)(F)F)ncc2-c2cnc(NCc3c(F)ccc4c3CCO4)n3cnc(c23)C1=O` [compound A, 12-(((5-fluoro-2,3-dihydrobenzofuran-4-yl)methyl)amino)-4-isopropyl-7-(trifluoromethyl)-4,5-dihydro-3H-2,4,8,11,12a-pentaazabenzo[4,5]cycloocta[1,2,3-cd]inden-3-one] gave a solubility at 24 h of 0.08 to 0.39 µg/mL (≈ 0.000152 to 0.000741 mM). Further, the solubility in series [2] (Acetonitrile) turned out to be 1.2 mg/mL (≈ 2.28 mM); in series [2] (DMF) it was 33 mg/mL (≈ 62.7 mM); in series [2] (DMSO), 33 mg/mL (≈ 62.7 mM); in series [2] (Dichloromethane) it was 10 mg/mL (≈ 19 mM); in series [2] (Ethanol), 1.1 mg/mL (≈ 2.09 mM); in series [2] (Methanol: dichloromethane (1:1)) it was 28.5 mg/mL (≈ 54.1 mM). In addition, the solubility in series [2] (Methanol: dichloromethane (1:2)) amounted to 50 mg/mL (≈ 95 mM); in series [2] (Methanol: dichloromethane (1:3)), 83 mg/mL (≈ 158 mM); in series [2] (Methanol: dichloromethane (1:4)), 83 mg/mL (≈ 158 mM); in series [2] (Methanol: dichloromethane (1:5)), 83 mg/mL (≈ 158 mM); in series [2] (Methanol: dichloromethane (2:1)), 14.3 mg/mL (≈ 27.2 mM); in series [2] (Methanol: dichloromethane (3:1)), 7.7 mg/mL (≈ 14.6 mM). Besides, the solubility is 4.3 mg/mL (≈ 8.17 mM) in series [2] (Methanol), 11 mg/mL (≈ 20.9 mM) in series [2] (N-methylpyridine), 2 mg/mL (≈ 3.8 mM) in series [2] (Tetrahydrofuran) and 3.3 mg/mL (≈ 6.27 mM) in series [2] (Toluene).

(Values after patent EP4725490A1, “EED INHIBITOR SOLID DISPERSION, ORAL FORMULATION COMPRISING SAME, AND PREPARATION METHOD THEREFOR” (Ascentage Pharma (Suzhou) Co., Ltd., priority 2023, dated 2024).)
